Source: the NIST ThermoML archive (doi:10.1021/je060490w)

Assay: xn = mol fraction of the nth substance listed
Details: Pendant drop shape

COC(C)(C)OC [3,3-dimethyl-2,4-dioxapentane] + Cc1ccc(C)c(C)c1
Details	surface tension liquid-gas [mN/m]
298.15 K, x1 = 0.0523	28.69
298.15 K, x1 = 0.0998	28.17
298.15 K, x1 = 0.1497	27.62
298.15 K, x1 = 0.1996	27.12
298.15 K, x1 = 0.2517	26.6
298.15 K, x1 = 0.3009	26.13
298.15 K, x1 = 0.3494	25.68
298.15 K, x1 = 0.3987	25.24
298.15 K, x1 = 0.4502	24.79
298.15 K, x1 = 0.4994	24.37
298.15 K, x1 = 0.5498	23.95
298.15 K, x1 = 0.5996	23.55
298.15 K, x1 = 0.6508	23.17
298.15 K, x1 = 0.6997	22.82
298.15 K, x1 = 0.7498	22.51
298.15 K, x1 = 0.7992	22.24
298.15 K, x1 = 0.8508	22
298.15 K, x1 = 0.8997	21.79
298.15 K, x1 = 0.9489	21.62
298.15 K, x1 = 1	21.46
308.15 K, x1 = 0.0515	27.59
308.15 K, x1 = 0.0998	27.02
308.15 K, x1 = 0.1499	26.47
308.15 K, x1 = 0.2001	25.95
308.15 K, x1 = 0.2475	25.5
308.15 K, x1 = 0.302	24.97
308.15 K, x1 = 0.3512	24.53
308.15 K, x1 = 0.3995	24.12
308.15 K, x1 = 0.4485	23.66
308.15 K, x1 = 0.4989	23.23
308.15 K, x1 = 0.5542	22.77
308.15 K, x1 = 0.5998	22.4
308.15 K, x1 = 0.6518	22.02
308.15 K, x1 = 0.6987	21.69
308.15 K, x1 = 0.7455	21.44
308.15 K, x1 = 0.7962	21.11
308.15 K, x1 = 0.851	20.86
308.15 K, x1 = 0.8973	20.71
308.15 K, x1 = 0.9456	20.55
308.15 K, x1 = 1	20.43
313.15 K, x1 = 0.0506	27.03
313.15 K, x1 = 0.0996	26.42
313.15 K, x1 = 0.1509	25.86
313.15 K, x1 = 0.1994	25.36
313.15 K, x1 = 0.2511	24.87
313.15 K, x1 = 0.3032	24.38
313.15 K, x1 = 0.3475	23.95
313.15 K, x1 = 0.3981	23.52
313.15 K, x1 = 0.4501	23.07
313.15 K, x1 = 0.5	22.66
313.15 K, x1 = 0.5487	22.25
313.15 K, x1 = 0.5993	21.84
313.15 K, x1 = 0.6504	21.45
313.15 K, x1 = 0.6993	21.12
313.15 K, x1 = 0.7486	20.8
313.15 K, x1 = 0.7987	20.51
313.15 K, x1 = 0.8417	20.31
313.15 K, x1 = 0.8929	20.12
313.15 K, x1 = 0.9487	19.97
313.15 K, x1 = 1	19.91
